We go through 20 compounds from patent publication US8193203B2, “Bicyclic compounds having activity at the CXCR4 receptor” (Allergan, Inc., priority 2008, dated 2012).

In this assay the target is T1, human CXCR4 receptor (Homo sapiens, UniProt P61073).
T1 construct: expressed in transfected cells
The experiment in a line: Measurement of intracellular Ca+2 responses (FLIPR), antagonism of the SDF-1α response. The assay is classed as cell-based. As to conditions: for IC50: HEK-Gqi5 cells stably expressing human CXCR4, Fluo-4 FLIPR, antagonism of SDF-1α 1.9 nM (EC65); for CXCR4 (% Inh): percent antagonism of SDF-1α 1.9 nM (EC65) response, HEK-Gqi5 human CXCR4 cells, value in brackets. The essentials:
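HEK-Gqi5 cells stably expressing CXCR4, Fluo-4-loaded (2 uM, 40 min, 37 °C), read on FLIPR. Compound (2.44-40,000 nM) added first for agonism, then SDF-1α at 1.9 nM final (EC65); IC50 and percent antagonism from second-addition calcium signal.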

As usually defined, the IC50 is the point on the concentration scale where inhibition reaches its midpoint.

T1 sequence (P61073 whole entry): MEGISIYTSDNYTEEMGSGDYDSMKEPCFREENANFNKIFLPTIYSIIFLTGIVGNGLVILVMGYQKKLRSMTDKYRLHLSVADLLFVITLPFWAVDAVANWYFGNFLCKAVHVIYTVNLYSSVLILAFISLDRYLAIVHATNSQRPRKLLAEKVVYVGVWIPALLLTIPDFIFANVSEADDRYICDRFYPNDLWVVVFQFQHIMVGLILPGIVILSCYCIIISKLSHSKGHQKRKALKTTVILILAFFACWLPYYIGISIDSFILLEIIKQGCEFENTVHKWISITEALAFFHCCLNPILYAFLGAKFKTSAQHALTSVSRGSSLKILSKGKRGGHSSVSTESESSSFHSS

For `COc1cccc(N(C)C)c1CN1CCC(Nc2nc(NCCCN(C)C)nc3ccccc23)CC1` [Compound 68, N4-(1-(2-(Dimethylamino)-6-methoxybenzyl)piperidin-4-yl)-N2-(3-(dimethylamino)propyl)quinazoline-2,4-diamine], the “CXCR4 (% Inh)” value amounted to 95%. The same compound registered an IC50 (values in nM) of 41 nM.

With `COc1cc2nc(NCCN(C)C)nc(NC3CCN(Cc4c(OCCCN(C)C)cccc4N(C)C)CC3)c2cc1OC` [Compound 203, N˜4˜-(1-{2-(Dimethylamino)-6-[3-(dimethylamino)propoxy]benzyl}piperidin-4-yl)-N˜2˜-[2-(dimethylamino)ethyl]-6,7-dim ethoxyquinazoline-2,4-diamine], the “CXCR4 (% Inh)” value is 94%. Further, where the note is “values in nM”, 66 nM corresponded to half-maximal inhibition (IC50).

For `COc1cc2nc(NCCCO)nc(NC3CCN(Cc4c(OCCN(C)C)cccc4N(C)C)CC3)c2cc1OC` [Compound 207, 3-({4-[(1-{2-(Dimethylamino)-6-[2-(dimethylamino)ethoxy]benzyl}piperidin-4-yl)amino]-6,7-dimethoxyquinazolin-2-yl}amino)propan-1-ol], the “CXCR4 (% Inh)” value turned out to be 99%. Under “values in nM”, this compound had an IC50 of 69 nM.

In the case of `COc1cc2nc(NC[C@@H]3CCNC3)nc(NC3CCN(Cc4c(OCCN(C)C)cccc4N(C)C)CC3)c2cc1OC` [Compound 123, (R)—N-4-(1-(2-(Dimethylamino)-6-(2-(dimethylamino)ethoxy)benzyl)piperidin-4-yl)-6,7-dimethoxy-N2-(pyrrolidin-3-ylmethyl)quinazoline-2,4-diamine], the “CXCR4 (% Inh)” value is 96%. Further, for the setting “values in nM”, half-maximal inhibition (IC50) required 84 nM.

In the case of `COc1cccc(N(C)C)c1CN1CCC(Nc2nc(NCC[C@@H]3CCCN3C(=O)OC(C)(C)C)nc3ccccc23)CC1` [Compound 114, (S)-tert-Butyl 2-(2-(4-(1-(2-(Dimethylamino)-6-methoxybenzyl)piperidin-4-ylamino)quinazolin-2-ylamino)ethyl)pyrrolidine-1-carboxylate], the “CXCR4 (% Inh)” value is 75%. For the setting “values given in μM”, the IC50 was determined as 2100 nM.

As to `COc1cc2nc(NCc3cncs3)nc(NC3CCN(Cc4c(OCCN(C)C)cccc4N(C)C)CC3)c2cc1OC` [Compound 197, N˜4˜-(1-{2-(Dimethylamino)-6-[2-(dimethylamino)ethoxy]benzyl}piperidin-4-yl)-6,7-dimethoxy-N˜2˜-(1,3-thiazol-5-ylmethyl)quinazoline-2,4-diamine], the “CXCR4 (% Inh)” value came to 85%. The IC50 (values in nM) is 34 nM.

With `COc1cccc(N(C)C)c1CN1CCC(Nc2nc(NCCC#N)nc3ccccc23)CC1` [Compound 100, 3-(4-(1-(2-(Dimethylamino)-6-methoxybenzyl)piperidin-4-ylamino)quinazolin-2-ylamino)propanenitrile], the “CXCR4 (% Inh)” value is on record as 100%. Half-maximal inhibition (values given in μM) (IC50) required 1900 nM.

In the case of `CCN(CC)CCOc1cccc(N(C)C)c1CN1CCC(Nc2nc(NCCN(C)C)nc3cc(OC)c(OC)cc23)CC1` [Compound 189, N˜4˜-(1-{2-[2-(Diethylamino)ethoxy]-6-(dimethylamino)benzyl}piperidin-4-yl)-N˜2˜-[2-(dimethylamino)ethyl]-6,7-dimethoxyquinazoline-2,4-diamine], the “CXCR4 (% Inh)” value is 94%. Besides, the IC50 (values in nM) amounted to 45 nM.

For the compound `CCN(CC)CCCNc1nc(NC2CCN(Cc3c(OC(C)C)cccc3N(C)C)CC2)c2cc(OC)c(OC)cc2n1` [Compound 139, N˜2˜-[3-(Diethylamino)propyl]-N˜4˜-{1-[2-(dimethylamino)-6-isopropoxybenzyl]piperidin-4-yl}-6,7-dimethoxyquinazoline-2,4-diamine], the “CXCR4 (% Inh)” value came out at 93%. The IC50 (values given in μM) was determined as 1400 nM.

With `CCNCCNc1nc(NC2CCN(Cc3c(OC)cccc3N(C)C)CC2)c2ccccc2n1` [Compound 105, N4-(1-(2-(Dimethylamino)-6-methoxybenzyl)piperidin-4-yl)-N2-(2-(ethylamino)ethyl)quinazoline-2,4-diamine], the “CXCR4 (% Inh)” value was found to be 98%. The IC50 (values in nM) was 771 nM.

Turning to “N˜4˜-(1-{2-(Dimethylamino)-6-[2-(dimethylamino)ethoxy]benzyl}piperidin-4-yl)-6,7-dimethoxy-N2(1H-1,2,4-triazol-5-ylmethyl)quinazoline-2,4-diamine [Compound 211]”, the “CXCR4 (% Inh)” value amounted to 98%. This compound also returned an IC50 (values in nM) of 25 nM.

For `COc1cccc(N(C)C)c1CN1CCC(Nc2nc(NCC3CNC3)nc3ccccc23)CC1` [Compound 109, N2-(Azetidin-3-ylmethyl)-N4-(1-(2-(dimethylamino)-6-methoxybenzyl)piperidin-4-yl)quinazoline-2,4-diamine], the “CXCR4 (% Inh)” value came to 98%. This compound returned an IC50 (values in nM) of 155 nM.

As to `COc1cccc(N(C)C)c1CN1CCC(Nc2nc(NC[C@H]3CCNC3)nc3ccccc23)CC1` [Compound 111, (S)—N-4-(1-(2-(Dimethylamino)-6-methoxybenzyl)piperidin-4-yl)-N2-(pyrrolidin-3-ylmethyl)quinazoline-2,4-diamine], the “CXCR4 (% Inh)” value turned out to be 98%. For the same compound, the IC50 (unit of the source corrected, heading: CXCR4 IC50, values given in μM) was 224 nM.

As to `CCN(CC)CCCNc1nc(NC2CCN(Cc3c(OC)cccc3N(C)C)CC2)c2ccccc2n1` [Compound 48, N2-(3-(Diethylamino)propyl)-N4-(1-(2-(dimethylamino)-6-methoxybenzyl)piperidin-4-yl)quinazoline-2,4-diamine], the “CXCR4 (% Inh)” value turned out to be 100%. For the setting “values in nM”, this compound returned an IC50 of 150 nM.

For `COc1cc2nc(N3CCCCCC3)nc(NC3CCN(Cc4c(OC)cccc4N(C)C)CC3)c2cc1OC` [Compound 52, 2-(Azepan-1-yl)-N-(1-(2-(dimethylamino)-6-methoxybenzyl)piperidin-4-yl)-6,7-dimethoxyquinazolin-4-amine], the “CXCR4 (% Inh)” value turned out to be 90%. Under “values in nM”, this compound came in with an IC50 of 730 nM.

`COc1cc2nc(NCCCN)nc(NC3CCN(Cc4c(OC)cccc4N(C)C)CC3)c2cc1OC` [Compound 227]: the “CXCR4 (% Inh)” value amounted to 94%. Also, half-maximal inhibition (values in nM) (IC50) required 105 nM.

As for `COc1cccc(N(C)C)c1CN1CCC(Nc2nc(NCCCN(C)C)nc3ccc(Br)cc23)CC1` [Compound 146, 6-Bromo-N˜4˜-{1-[2-(dimethylamino)-6-methoxybenzyl]piperidin-4-yl}-N˜2˜-[3-(dimethylamino)propyl]quinazoline-2,4-diamine], the “CXCR4 (% Inh)” value is given as 96%. Further, half-maximal inhibition (values given in μM) (IC50) required 1200 nM.

`CCN(CC)CCCNc1nc(NC2CCN(Cc3ccccc3[N+](=O)[O-])CC2)c2cc(OC)c(OC)cc2n1` [Compound 65, N2-(3-(Diethylamino)propyl)-6,7-dimethoxy-N4-(1-(2-nitrobenzyl)piperidin-4-yl)quinazoline-2,4-diamine]: the “CXCR4 (% Inh)” value worked out at 93%. The same compound registered an IC50 (values given in μM) of 4900 nM.

In the case of `CCN(CC)CCCNc1nc(NC2CCN(Cc3ccccc3N(C)C)CC2)c2ccccc2n1` [Compound 35, N2-(3-(Diethylamino)propyl)-N4-(1-(2-(dimethylamino)benzyl)piperidin-4-yl)quinazoline-2,4-diamine], the “CXCR4 (% Inh)” value was 90%. The compound also registered an IC50 (values in nM) of 330 nM.

Consider `COc1cccc(N(C)C)c1CN1CCC(Nc2nc(NCCN)nc3ccccc23)CC1` [Compound 125, N2-(2-Aminoethyl)-N4-(1-(2-(dimethylamino)-6-methoxybenzyl)piperidin-4-yl)quinazoline-2,4-diamine], for which the “CXCR4 (% Inh)” value stood at 97%. For the same compound, where the note is “values in nM”, inhibition was half-maximal at 268 nM (IC50).
